Measurements from patent EP4813989A1, “CRYSTAL, PHARMACEUTICAL COMPOSITION, PREPARATION METHOD THEREFOR, AND USE THEREOF” (TYK Medicines, Inc., priority 2023, dated 2025).

Experiments:
Type in all cases: physicochemical
[1] = Dynamic vapor sorption (DVS) hygroscopicity
Description: Dynamic vapor sorption (DVS) was used to investigate hygroscopicities of an active pharmaceutical ingredient in different crystal forms.
Determination method: • instrument: dynamic vapor sorption analyzer; temperature: 25°C; protective gas and flow rate: N2, 200 mL/min; • dm/dt: 0.002%/min; RH range: 0%RH-100%RH; cycle: 1 full cycle.

[2] = Flowability test (angle of repose); conditions: listed as amorphous sample
Description: A flowability determination method was as follows: an angle of repose was determined by using a device composed of 2 to 3 funnels connected in series in a staggered manner, and drug powder was slowly and uniformly passed through the funnels onto a stationary base with a diameter d, so as to form a symmetric powder pile with a single layer of powder at the bottom. During the formation of the powder pile, a height of the funnels was maintained within 2-4 cm from a top of the powder pile, a height h of the cone was determined, and the angle of repose was calculated as tanθ=h/(d/2).

[3] = Accelerated test, related substances by HPLC; conditions: 40°C±2°C, 75%RH±5%RH; for Impurity content RRT0.55 / Impurity content RRT0.66 / Impurity content RRT0.71 / Impurity content RRT0.94 / Impurity content RRT1.02 / Impurity content RRT1.06 / Impurity content RRT1.08 / Impurity content RRT1.15 / Total impurities: open
Description: An investigation method for the accelerated test can be seen in Table 14 below.
Change results of related substances in each crystal form under the accelerated condition (40°C±2°C, 75%RH±5%RH) can be seen in Table 18.
HPLC detection results of related substances under the accelerated condition can be seen as follows: Table 18

[4] = Light exposure test, related substances by HPLC; conditions: for Impurity content RRT0.55 / Impurity content RRT0.66 / Impurity content RRT0.71 / Impurity content RRT0.94 / Impurity content RRT1.02 / Impurity content RRT1.06 / Impurity content RRT1.08 / Impurity content RRT1.15 / Total impurities: 4500lx±500lx, open
Description: An investigation method for the light exposure test can be seen in Table 13 below.
Results of related substances in each crystal form under the light exposure condition (4500lx±500lx) can be seen in Table 17.
HPLC detection results of related substances under the light exposure condition can be seen as follows: Table 17

[5] = High-humidity test, related substances by HPLC; conditions: 90%RH±5%RH; for Impurity content RRT0.55 / Impurity content RRT0.66 / Impurity content RRT0.71 / Impurity content RRT0.94 / Impurity content RRT1.02 / Impurity content RRT1.06 / Impurity content RRT1.08 / Impurity content RRT1.15 / Total impurities: open
Description: An investigation method for the high-humidity test can be seen in Table 12 below.
Results of related substances in each crystal form under the high-humidity condition (90%RH±5%RH) can be seen in Table 16.
HPLC detection results of related substances under the high-humidity condition can be seen as follows: Table 16

## C[C@@H](Nc1ccn2ncc(C3=NOC(C)(C)N3)c2n1)c1cc(F)cc(F)c1F [amorphous form]
[1]
  Hygroscopicity (conclusion): had hygroscopicity
[1]; humidity increased from 90% to 100%
  DVS weight gain: approximately 3.5%
[1]; humidity reduced from 100% to 90%
  DVS weight loss: approximately 1.5%
[2]
  angle of repose: approximately 37.5 °
[3]; 32 days
  Increase of impurity RRT1.08 content: 0.03%
  Impurity content RRT0.55: 0.04%
  Impurity content RRT0.66: 0.20%
  Impurity content RRT0.71: 0.18%
  Impurity content RRT0.94: 0.04%
  Impurity content RRT1.02: 0.29%
  Impurity content RRT1.06: 0.06%
  Impurity content RRT1.08: 0.21%
  Impurity content RRT1.15: 0.03%
  Total impurities: 1.05%
[3]; 0 day
  Impurity content RRT0.55: 0.03%
  Impurity content RRT0.66: 0.20%
  Impurity content RRT0.71: 0.16%
  Impurity content RRT0.94: 0.04%
  Impurity content RRT1.02: 0.29%
  Impurity content RRT1.06: 0.07%
  Impurity content RRT1.08: 0.18%
  Impurity content RRT1.15: 0.04%
  Total impurities: 1.01%
[3]; 5 days
  Impurity content RRT0.55: 0.04%
  Impurity content RRT0.66: 0.20%
  Impurity content RRT0.71: 0.17%
  Impurity content RRT0.94: 0.03%
  Impurity content RRT1.02: 0.32%
  Impurity content RRT1.06: 0.08%
  Impurity content RRT1.08: 0.22%
  Impurity content RRT1.15: 0.04%
  Total impurities: 1.09%
[3]; 11 days
  Impurity content RRT0.55: 0.03%
  Impurity content RRT0.66: 0.20%
  Impurity content RRT0.71: 0.17%
  Impurity content RRT0.94: 0.03%
  Impurity content RRT1.02: 0.31%
  Impurity content RRT1.06: 0.08%
  Impurity content RRT1.08: 0.24%
  Impurity content RRT1.15: 0.03%
  Total impurities: 1.10%
[4]; 4500 lx±500 lx, 32 days
  Increase of impurity RRT0.66 content: 0.03%
  Increase of impurity RRT0.71 content: 0.05%
  Increase of impurity RRT1.02 content: 0.06%
  Increase of impurity RRT1.08 content: 0.19%
  Increase of total impurities: 0.37%
[4]; 0 day
  Impurity content RRT0.55: 0.03%
  Impurity content RRT0.66: 0.20%
  Impurity content RRT0.71: 0.16%
  Impurity content RRT0.94: 0.04%
  Impurity content RRT1.02: 0.29%
  Impurity content RRT1.06: 0.07%
  Impurity content RRT1.08: 0.18%
  Impurity content RRT1.15: 0.04%
  Total impurities: 1.01%
[4]; 5 days
  Impurity content RRT0.55: 0.04%
  Impurity content RRT0.66: 0.20%
  Impurity content RRT0.71: 0.17%
  Impurity content RRT0.94: 0.03%
  Impurity content RRT1.02: 0.32%
  Impurity content RRT1.06: 0.08%
  Impurity content RRT1.08: 0.21%
  Impurity content RRT1.15: 0.04%
  Total impurities: 1.09%
[4]; 11 days
  Impurity content RRT0.55: 0.03%
  Impurity content RRT0.66: 0.21%
  Impurity content RRT0.71: 0.17%
  Impurity content RRT0.94: 0.03%
  Impurity content RRT1.02: 0.33%
  Impurity content RRT1.06: 0.09%
  Impurity content RRT1.08: 0.28%
  Impurity content RRT1.15: 0.03%
  Total impurities: 1.17%
[4]; 32 days
  Impurity content RRT0.55: 0.05%
  Impurity content RRT0.66: 0.23%
  Impurity content RRT0.71: 0.21%
  Impurity content RRT0.94: 0.06%
  Impurity content RRT1.02: 0.35%
  Impurity content RRT1.06: 0.07%
  Impurity content RRT1.08: 0.37%
  Impurity content RRT1.15: 0.05%
  Total impurities: 1.38%
[5]; 32 days
  Increase of impurity RRT1.02 content: 0.03%
  Increase of impurity RRT1.08 content: 0.05%
  Increase of total impurities: 0.10%
  Impurity content RRT0.55: 0.03%
  Impurity content RRT0.66: 0.20%
  Impurity content RRT0.71: 0.18%
  Impurity content RRT0.94: 0.04%
  Impurity content RRT1.02: 0.31%
  Impurity content RRT1.06: 0.06%
  Impurity content RRT1.08: 0.23%
  Impurity content RRT1.15: 0.05%
  Total impurities: 1.11%
[5]; 0 day
  Impurity content RRT0.55: 0.03%
  Impurity content RRT0.66: 0.20%
  Impurity content RRT0.71: 0.16%
  Impurity content RRT0.94: 0.04%
  Impurity content RRT1.02: 0.29%
  Impurity content RRT1.06: 0.07%
  Impurity content RRT1.08: 0.18%
  Impurity content RRT1.15: 0.04%
  Total impurities: 1.01%
[5]; 5 days
  Impurity content RRT0.55: 0.03%
  Impurity content RRT0.66: 0.21%
  Impurity content RRT0.71: 0.17%
  Impurity content RRT0.94: 0.03%
  Impurity content RRT1.02: 0.31%
  Impurity content RRT1.06: 0.09%
  Impurity content RRT1.08: 0.19%
  Impurity content RRT1.15: 0.04%
  Total impurities: 1.07%
[5]; 11 days
  Impurity content RRT0.55: 0.03%
  Impurity content RRT0.66: 0.20%
  Impurity content RRT0.71: 0.16%
  Impurity content RRT0.94: 0.03%
  Impurity content RRT1.02: 0.31%
  Impurity content RRT1.06: 0.09%
  Impurity content RRT1.08: 0.25%
  Impurity content RRT1.15: 0.03%
  Total impurities: 1.11%
